According to the NIST ThermoML archive (doi:10.1016/j.fluid.2010.08.022):

Settings: 101.33 kPa; for speed of sound: Sing-around technique in a fixed-path interferometer; for mass density: Vibrating tube method

CCCCCCCC/C=C\CCCCCCCC(=O)O.NCCO [2-hydroxyethylammonium oleate]
Settings | mass density [kg/m3] | speed of sound [m/s]
278.16 K, Crystal | 955.929 | 1635.4
278.41 K, Crystal | 955.757 | 1634.1
278.66 K, Crystal | 955.58 | 1632.7
278.9 K, Crystal | 955.409 | 1631.4
279.16 K, Crystal | 955.234 | 1630
279.41 K, Crystal | 955.057 | 1628.7
279.65 K, Crystal | 954.881 | 1627.4
279.91 K, Crystal | 954.704 | 1626.1
280.16 K, Crystal | 954.527 | 1624.7
280.41 K, Crystal | 954.349 | 1623.4
280.65 K, Crystal | 954.172 | 1622.1
280.91 K, Crystal | 953.991 | 1620.8
281.15 K, Crystal | 953.811 | 1619.5
281.41 K, Crystal | 953.63 | 1618.2
281.66 K, Crystal | 953.448 | 1616.8
281.91 K, Crystal | 953.266 | 1615.5
282.16 K, Crystal | 953.081 | 1614.2
282.41 K, Crystal | 952.898 | 1612.9
282.66 K, Crystal | 952.714 | 1611.6
282.91 K, Crystal | 952.526 | 1610.3
283.16 K, Crystal | 952.337 | 1608.9
283.41 K, Crystal | 952.15 | 1607.6
283.66 K, Crystal | 951.962 | 1606.3
283.91 K, Crystal | 951.769 | 1605
284.16 K, Crystal | 951.578 | 1603.6
284.41 K, Crystal | 951.383 | 1602.3
284.66 K, Crystal | 951.188 | 1600.8
284.91 K, Crystal | 950.989 | 1599.3
285.15 K, Crystal | 950.796 | 1597.7
285.4 K, Crystal | 950.604 | 1595.8
285.65 K, Crystal | 950.404 | 1592.8
285.9 K, Crystal | 950.405 | 1593.2
286.15 K, Liquid crystal of unknown type | 944.693 | 1554.4
286.4 K, Liquid crystal of unknown type | 944.221 | 1552.7
286.65 K, Liquid crystal of unknown type | 944.256 | 1553.3
286.9 K, Liquid crystal of unknown type | 943.886 | 1551.5
287.15 K, Liquid crystal of unknown type | 943.629 | 1550.2
287.4 K, Liquid crystal of unknown type | 943.416 | 1548.9
287.65 K, Liquid crystal of unknown type | 943.228 | 1547.7
287.9 K, Liquid crystal of unknown type | 943.055 | 1546.7
288.15 K, Liquid crystal of unknown type | 942.888 | 1545.7
288.4 K, Liquid crystal of unknown type | 942.726 | 1544.7
288.65 K, Liquid crystal of unknown type | 942.565 | 1543.7
288.9 K, Liquid crystal of unknown type | 942.405 | 1542.7
289.15 K, Liquid crystal of unknown type | 942.244 | 1541.8
289.4 K, Liquid crystal of unknown type | 942.083 | 1540.8
289.65 K, Liquid crystal of unknown type | 941.923 | 1539.9
289.9 K, Liquid crystal of unknown type | 941.764 | 1539
290.15 K, Liquid crystal of unknown type | 941.604 | 1538.1
290.4 K, Liquid crystal of unknown type | 941.445 | 1537.2
290.66 K, Liquid crystal of unknown type | 941.282 | 1536.2
290.9 K, Liquid crystal of unknown type | 941.124 | 1535.3
291.15 K, Liquid crystal of unknown type | 940.965 | 1534.4
291.4 K, Liquid crystal of unknown type | 940.805 | 1533.5
291.65 K, Liquid crystal of unknown type | 940.646 | 1532.6
291.91 K, Liquid crystal of unknown type | 940.485 | 1531.7
292.15 K, Liquid crystal of unknown type | 940.327 | 1530.8
292.41 K, Liquid crystal of unknown type | 940.167 | 1530
292.65 K, Liquid crystal of unknown type | 940.008 | 1529.1
292.9 K, Liquid crystal of unknown type | 939.848 | 1528.2
293.16 K, Liquid crystal of unknown type | 939.688 | 1527.3
293.4 K, Liquid crystal of unknown type | 939.529 | 1526.4
293.66 K, Liquid crystal of unknown type | 939.369 | 1525.5
293.9 K, Liquid crystal of unknown type | 939.211 | 1524.6
294.16 K, Liquid crystal of unknown type | 939.05 | 1523.7
294.41 K, Liquid crystal of unknown type | – | 1522.9
